According to patent US20050070006A1 (priority 2001, published 2005):
In brackets after ≈: the same amount, converted by molar mass. Where two headings read alike, the source gives them in different places.

Key:
[1] = test system: strain 4S (frameshift mutation); details: Bromocresol Red colour change
[2] = test system: strain 6S (frameshift mutation); test: Long-term mutation test (selection phase 16 hours), luminometric β-galactosidase reporter; details: selection 16 hours
[3] = antibiotic activity; Olivia et al. 1992; cited from earlier work
[4] = test system: strain 4S (frameshift mutation); test: Long-term mutation test (selection phase 16 hours), luminometric β-galactosidase reporter; details: selection 16 hours

With `COc1ccc2nc3cc(Cl)ccc3c(NCCCNCCCl)c2c1.Cl.Cl` [ICR-191, 2-Methoxy-6-chloro-9-(3-(2-chloro-ethyl)aminopropylamino)acridine, dihydrochloride] the “% of positive wells” value ([1]; 0.03 μg/ml) was 0%, the “Mutation induction (factor)” value ([1]; 0.03 μg/ml) was 0 factor and the “% of positive wells” value ([1]; 0.06 μg/ml) was 6.3%. For the same molecule, the “Mutation induction (factor)” value ([1]; 0.06 μg/ml) was 2 factor, the “% of positive wells” value ([1]; 0.12 μg/ml) was 12.5% and the “Mutation induction (factor)” value ([1]; 0.12 μg/ml) was 4 factor. The “% of positive wells” value ([1]; 0.25 μg/ml) was 25%, the “Mutation induction (factor)” value ([1]; 0.25 μg/ml) was 8.1 factor and the “% of positive wells” value ([1]; 0.5 μg/ml) was 37.5%. The “Mutation induction (factor)” value ([1]; 0.5 μg/ml) was 12.1 factor, the “% of positive wells” value ([1]; 1 μg/ml) was 75% and the “Mutation induction (factor)” value ([1]; 1 μg/ml) was 24.2 factor. The “Mutation induction (factor)” value ([2]; 0.016 μg/ml) was 28 factor, the “Relative luminescence units (rlu)” value ([2]; 0.016 μg/ml) was 151340 rlu and the “Mutation induction (factor)” value ([2]; 0.031 μg/ml) was 57 factor. The “Relative luminescence units (rlu)” value ([2]; 0.031 μg/ml) was 307828 rlu, the “Mutation induction (factor)” value ([2]; 0.0625 μg/ml) was 86 factor and the “Relative luminescence units (rlu)” value ([2]; 0.0625 μg/ml) was 466003 rlu. For the same molecule, the “Mutation induction (factor)” value ([2]; 0.125 μg/ml) was 127 factor, the “Relative luminescence units (rlu)” value ([2]; 0.125 μg/ml) was 685471 rlu and the “Mutation induction (factor)” value ([2]; 0.25 μg/ml) was 162 factor. The “Relative luminescence units (rlu)” value ([2]; 0.25 μg/ml) was 880208 rlu, the “Mutation induction (factor)” value ([2]; 0.5 μg/ml) was 235 factor and the “Relative luminescence units (rlu)” value ([2]; 0.5 μg/ml) was 1274327 rlu. The “Mutation induction (factor)” value ([2]; 1 μg/ml) was 264 factor and the “Relative luminescence units (rlu)” value ([2]; 1 μg/ml) was 1432620 rlu.

In the case of `CN(C)[C@@H]1C(=O)C(C(N)=O)=C(O)[C@@]2(O)C(=O)C3=C(O)c4c(O)cccc4[C@@](C)(O)[C@H]3C[C@@H]12` [tetracyclin], the “MIC (minimum inhibition concentration) value” [3] is given as 0.5 µg/mL (≈ 1.13 µM).

For Nitrofluorene, the “Mutation induction (factor)” value ([4]; 0.031 μg/ml) was 39 factor, the “Relative luminescence units (rlu)” value ([4]; 0.031 μg/ml) was 210703 rlu and the “Mutation induction (factor)” value ([4]; 0.0625 μg/ml) was 90 factor. The “Relative luminescence units (rlu)” value ([4]; 0.0625 μg/ml) was 480532 rlu, the “Mutation induction (factor)” value ([4]; 0.125 μg/ml) was 169 factor and the “Relative luminescence units (rlu)” value ([4]; 0.125 μg/ml) was 900022 rlu. For the same molecule, the “Mutation induction (factor)” value ([4]; 0.25 μg/ml) was 321 factor, the “Relative luminescence units (rlu)” value ([4]; 0.25 μg/ml) was 1713083 rlu and the “Mutation induction (factor)” value ([4]; 0.5 μg/ml) was 682 factor. The “Relative luminescence units (rlu)” value ([4]; 0.5 μg/ml) was 3643737 rlu, the “Mutation induction (factor)” value ([4]; 1 μg/ml) was 630 factor and the “Relative luminescence units (rlu)” value ([4]; 1 μg/ml) was 3360982 rlu.

In the case of Nitropyrene, the “Mutation induction (factor)” value ([4]; 0.031 μg/ml) was 0.8 factor, the “Relative luminescence units (rlu)” value ([4]; 0.031 μg/ml) was 4125 rlu and the “Mutation induction (factor)” value ([4]; 0.0625 μg/ml) was 19.8 factor. The “Relative luminescence units (rlu)” value ([4]; 0.0625 μg/ml) was 105949 rlu, the “Mutation induction (factor)” value ([4]; 0.125 μg/ml) was 41 factor and the “Relative luminescence units (rlu)” value ([4]; 0.125 μg/ml) was 219636 rlu. For the same molecule, the “Mutation induction (factor)” value ([4]; 0.25 μg/ml) was 65 factor, the “Relative luminescence units (rlu)” value ([4]; 0.25 μg/ml) was 348410 rlu and the “Mutation induction (factor)” value ([4]; 0.5 μg/ml) was 177 factor. The “Relative luminescence units (rlu)” value ([4]; 0.5 μg/ml) was 950853 rlu, the “Mutation induction (factor)” value ([4]; 1 μg/ml) was 103 factor and the “Relative luminescence units (rlu)” value ([4]; 1 μg/ml) was 552390 rlu.
